Source: ChEMBL document CHEMBL3044900, “Synthesis of pregnenolonedanazolethylendiamine conjugate: relationship between descriptors log P, , R m, and V m and its antibacterial activity in S. aureus and V. cholerae” (2011)
≈ marks a conversion by molar mass, not a printed value.

Assays:
[1] = tested on: Staphylococcus aureus; experiment: Antibacterial activity against Staphylococcus aureus ATCC 25923 incubated for 24 hr followed by compound washout measured after 24 hr by dilution method; format: functional
[2] = tested on: Vibrio cholerae; experiment: Antibacterial activity against Vibrio cholerae ATCC 14035 incubated for 24 hr followed by compound washout measured after 24 hr by dilution method; format: functional

Compound | MIC ([1]; ATCC 25923, 24 h) | MIC ([2]; ATCC 14035, 24 h) | MIC [1] | MIC [2]
C#C[C@@]1(OC(=O)CCC(=O)O[C@H]2CC[C@@]3(C)C(=CC[C@H]4[C@@H]5CC[C@H](C(C)=O)[C@@]5(C)CC[C@@H]43)C2)CC[C@H]2[C@@H]3CCC4=Cc5oncc5C[C@]4(C)[C@H]3CC[C@@]21C [DANAZOL-PREGNENOLONE] | 0.663 µM (≈ 0.488 µg/mL) | 1.32 µM (≈ 0.972 µg/mL) |  | 
CO/N=C(\C(=O)N[C@@H]1C(=O)N2C(C(=O)O)=C(COC(C)=O)CS[C@H]12)c1csc(N)n1 [CEFOTAXIME] | 0.261 µM (≈ 0.119 µg/mL) | 0.523 µM (≈ 0.238 µg/mL) |  | 
GENTAMICIN |  |  | 0.274 µM | 0.0134 µM
C#C[C@@]1(OC(=O)CCC(=O)O[C@H]2CC[C@@]3(C)C(=CC[C@H]4[C@@H]5CC[C@H](C(C)=O)[C@@]5(C)CC[C@@H]43)C2)CC[C@H]2[C@@H]3CCC4=C(CNCCN)c5oncc5C[C@]4(C)[C@H]3CC[C@@]21C | 1.23 µM (≈ 0.994 µg/mL) | 1.23 µM (≈ 0.994 µg/mL) |  | 
O=C(O)c1cn(C2CC2)c2cc(N3CCNCC3)c(F)cc2c1=O [CIPROFLOXACIN] | 0.377 µM (≈ 0.125 µg/mL) | 3.01 µM (≈ 0.997 µg/mL) |  | 
